This passage reports residual activity and inhibition results from ChEMBL document CHEMBL4507319 (2021).

Experiment [1] deals with Eukaryotic translation initiation factor 2-alpha kinase 1 (Homo sapiens) (UniProt Q9BQI3). Conditions: Compound concentration 1000.0 nM.
Experiment [2] concerns the target Epidermal growth factor receptor (Homo sapiens) (UniProt P00533). Conditions: Compound concentration 1000.0 nM.
The target in experiment [3] is Tyrosine-protein kinase JAK2 (Homo sapiens) (UniProt O60674). The conditions noted are these: Compound concentration 1000.0 nM.
For experiment [4], the target named is Serine/threonine-protein kinase 38 (Homo sapiens) (UniProt Q15208). Conditions: Compound concentration 1000.0 nM.
The target of experiment [5] is Cyclin-dependent kinase 2 (Homo sapiens) (UniProt P24941). Conditions: Compound concentration 1000.0 nM.
Experiment [6] has as its target T1, MAP kinase-activated protein kinase 5 (Homo sapiens) (UniProt Q8IW41).
T1 sequence (whole entry): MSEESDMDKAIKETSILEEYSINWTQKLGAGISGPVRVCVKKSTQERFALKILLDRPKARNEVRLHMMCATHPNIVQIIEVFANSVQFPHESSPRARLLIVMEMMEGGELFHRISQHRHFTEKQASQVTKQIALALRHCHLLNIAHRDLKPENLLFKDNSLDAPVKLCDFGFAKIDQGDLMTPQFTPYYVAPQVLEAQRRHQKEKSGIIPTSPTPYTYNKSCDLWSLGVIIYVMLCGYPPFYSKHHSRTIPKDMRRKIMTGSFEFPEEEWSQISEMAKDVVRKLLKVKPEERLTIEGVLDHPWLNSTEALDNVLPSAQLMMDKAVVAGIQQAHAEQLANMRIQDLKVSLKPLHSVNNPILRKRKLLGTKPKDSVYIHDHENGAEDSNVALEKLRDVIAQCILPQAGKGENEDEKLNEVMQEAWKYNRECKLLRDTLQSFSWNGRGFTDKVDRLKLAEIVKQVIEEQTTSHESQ
Conditions: Compound concentration 1000.0 nM.

For experiment [7], the target named is Serine/threonine-protein kinase 38-like (Homo sapiens) (UniProt Q9Y2H1). The conditions noted are these: Compound concentration 1000.0 nM.
Experiment [8] deals with Cyclin-dependent kinase 4 (Homo sapiens) (UniProt P11802). Conditions: Compound concentration 1000.0 nM.
In experiment [9] the target is Dual specificity mitogen-activated protein kinase kinase 1 (Homo sapiens) (UniProt Q02750). Conditions: Compound concentration 1000.0 nM.
Experiment [10] addresses Mitogen-activated protein kinase kinase kinase kinase 2 (Homo sapiens) (UniProt Q12851). The conditions noted are these: Compound concentration 1000.0 nM.
Experiment [11] has as its target Phosphatidylinositol 3-kinase catalytic subunit type 3 (Homo sapiens) (UniProt Q8NEB9). The conditions noted are these: Compound concentration 1000.0 nM.
Experiment [12] concerns the target Serine/threonine-protein kinase 25 (Homo sapiens) (UniProt O00506). Conditions: Compound concentration 1000.0 nM.
The target of experiment [13] is Receptor-type tyrosine-protein kinase FLT3 (Homo sapiens) (UniProt P36888). Conditions: Compound concentration 1000.0 nM.
Experiment [14] has as its target Insulin receptor (Homo sapiens) (UniProt P06213). The conditions noted are these: Compound concentration 1000.0 nM.
Experiment [15] deals with T2, NUAK family SNF1-like kinase 1 (Homo sapiens) (UniProt O60285).
T2 sequence (whole entry): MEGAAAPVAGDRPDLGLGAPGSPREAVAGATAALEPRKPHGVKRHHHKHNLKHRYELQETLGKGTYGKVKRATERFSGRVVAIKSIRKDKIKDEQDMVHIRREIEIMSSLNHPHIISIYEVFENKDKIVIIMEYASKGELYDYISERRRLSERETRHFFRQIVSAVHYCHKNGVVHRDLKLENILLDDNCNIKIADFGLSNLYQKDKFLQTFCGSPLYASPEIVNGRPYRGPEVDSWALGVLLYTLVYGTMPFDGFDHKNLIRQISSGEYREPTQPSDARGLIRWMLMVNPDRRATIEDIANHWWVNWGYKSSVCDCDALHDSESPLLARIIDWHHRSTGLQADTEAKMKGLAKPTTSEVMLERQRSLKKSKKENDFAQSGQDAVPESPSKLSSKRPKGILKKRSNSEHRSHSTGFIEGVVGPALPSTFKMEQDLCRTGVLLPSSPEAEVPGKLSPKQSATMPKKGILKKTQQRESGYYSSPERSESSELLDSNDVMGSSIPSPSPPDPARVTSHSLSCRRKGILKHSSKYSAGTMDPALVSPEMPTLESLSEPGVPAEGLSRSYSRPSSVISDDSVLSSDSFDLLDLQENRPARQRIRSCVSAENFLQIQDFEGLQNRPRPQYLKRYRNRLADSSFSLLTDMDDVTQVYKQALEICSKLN
The conditions noted are these: Compound concentration 1000.0 nM.

In experiment [16] the test system is Epidermal growth factor receptor (Homo sapiens), P00533 [UNDEFINED MUTATION]. Conditions: Compound concentration 1000.0 nM.
Experiment [17] deals with Casein kinase I isoform alpha (Homo sapiens) (UniProt P48729). The conditions noted are these: Compound concentration 1000.0 nM.
The target of experiment [18] is T3, Rhodopsin kinase GRK7 (Homo sapiens) (UniProt Q8WTQ7).
T3 sequence (whole entry): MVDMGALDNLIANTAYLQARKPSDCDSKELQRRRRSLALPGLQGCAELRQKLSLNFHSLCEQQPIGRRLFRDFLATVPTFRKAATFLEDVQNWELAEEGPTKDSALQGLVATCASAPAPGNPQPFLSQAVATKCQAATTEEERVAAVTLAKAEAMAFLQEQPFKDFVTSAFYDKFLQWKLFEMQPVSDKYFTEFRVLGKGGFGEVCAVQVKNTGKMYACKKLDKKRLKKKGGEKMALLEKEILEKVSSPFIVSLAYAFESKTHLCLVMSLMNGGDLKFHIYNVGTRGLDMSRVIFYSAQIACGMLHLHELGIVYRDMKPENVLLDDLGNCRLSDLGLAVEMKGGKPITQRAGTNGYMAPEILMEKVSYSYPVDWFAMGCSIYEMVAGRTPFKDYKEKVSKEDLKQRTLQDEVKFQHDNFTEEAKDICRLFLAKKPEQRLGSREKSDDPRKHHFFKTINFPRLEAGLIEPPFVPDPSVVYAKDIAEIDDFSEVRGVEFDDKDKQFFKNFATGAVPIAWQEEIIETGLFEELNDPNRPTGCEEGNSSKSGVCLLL
The conditions noted are these: Compound concentration 1000.0 nM.

Experiment [19] deals with Tyrosine-protein kinase ABL1 (Homo sapiens), P00519 [T315I]. Conditions: Compound concentration 1000.0 nM.
Experiment [20] addresses Fibroblast growth factor receptor 4 (Homo sapiens) (UniProt P22455). Conditions: Compound concentration 1000.0 nM.
Experiment [21] deals with GABA-A receptor; anion channel (Rattus norvegicus) (UniProt O09028+P15431+P18506+P18508+P19969+P20236+P23574+P23576+P28471+P28473+P30191+P62813+P63079+P63138+Q91ZM7+Q9ES14). The conditions noted are these: Compound concentration 10.0 uM.

Chain of Epidermal growth factor receptor (Homo sapiens), P00533 [UNDEFINED MUTATION] (P00533 whole entry, looked up, change not shown, canonical isoform): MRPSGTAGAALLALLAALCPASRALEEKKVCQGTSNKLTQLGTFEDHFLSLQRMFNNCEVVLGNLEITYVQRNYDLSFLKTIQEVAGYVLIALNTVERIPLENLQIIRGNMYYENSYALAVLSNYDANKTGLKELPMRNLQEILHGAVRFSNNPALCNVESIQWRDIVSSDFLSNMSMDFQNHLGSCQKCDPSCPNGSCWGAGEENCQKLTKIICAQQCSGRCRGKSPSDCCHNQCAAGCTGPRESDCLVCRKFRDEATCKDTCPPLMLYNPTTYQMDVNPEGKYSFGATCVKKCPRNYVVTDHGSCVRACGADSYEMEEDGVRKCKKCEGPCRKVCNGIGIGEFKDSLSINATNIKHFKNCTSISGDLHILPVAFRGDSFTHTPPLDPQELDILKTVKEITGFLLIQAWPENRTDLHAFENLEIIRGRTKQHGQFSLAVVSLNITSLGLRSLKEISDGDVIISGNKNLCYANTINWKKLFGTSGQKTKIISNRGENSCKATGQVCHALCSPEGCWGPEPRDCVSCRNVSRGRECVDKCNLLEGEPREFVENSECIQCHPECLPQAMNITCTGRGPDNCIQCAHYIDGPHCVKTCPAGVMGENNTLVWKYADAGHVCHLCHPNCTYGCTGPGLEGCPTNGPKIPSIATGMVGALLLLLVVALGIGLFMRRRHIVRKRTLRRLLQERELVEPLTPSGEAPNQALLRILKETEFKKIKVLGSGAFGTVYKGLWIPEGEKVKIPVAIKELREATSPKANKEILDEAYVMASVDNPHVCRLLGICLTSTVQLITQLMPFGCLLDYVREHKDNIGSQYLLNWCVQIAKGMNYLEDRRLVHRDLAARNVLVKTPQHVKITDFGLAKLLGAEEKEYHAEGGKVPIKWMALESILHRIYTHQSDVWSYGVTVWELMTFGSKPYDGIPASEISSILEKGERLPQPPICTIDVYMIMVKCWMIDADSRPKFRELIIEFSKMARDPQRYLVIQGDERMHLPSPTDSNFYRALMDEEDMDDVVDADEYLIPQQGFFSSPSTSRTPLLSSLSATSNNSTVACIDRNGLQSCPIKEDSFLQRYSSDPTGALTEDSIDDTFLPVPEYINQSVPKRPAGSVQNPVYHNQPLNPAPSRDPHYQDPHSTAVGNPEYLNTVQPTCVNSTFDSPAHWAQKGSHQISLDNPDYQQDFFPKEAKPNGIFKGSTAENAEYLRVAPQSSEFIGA
Chain of Epidermal growth factor receptor (Homo sapiens) (P00533 whole entry): as the sequence (P00533 whole entry, looked up, change not shown, canonical isoform) above
Chain of Serine/threonine-protein kinase 38 (Homo sapiens) (Q15208 2-465 limits assumed): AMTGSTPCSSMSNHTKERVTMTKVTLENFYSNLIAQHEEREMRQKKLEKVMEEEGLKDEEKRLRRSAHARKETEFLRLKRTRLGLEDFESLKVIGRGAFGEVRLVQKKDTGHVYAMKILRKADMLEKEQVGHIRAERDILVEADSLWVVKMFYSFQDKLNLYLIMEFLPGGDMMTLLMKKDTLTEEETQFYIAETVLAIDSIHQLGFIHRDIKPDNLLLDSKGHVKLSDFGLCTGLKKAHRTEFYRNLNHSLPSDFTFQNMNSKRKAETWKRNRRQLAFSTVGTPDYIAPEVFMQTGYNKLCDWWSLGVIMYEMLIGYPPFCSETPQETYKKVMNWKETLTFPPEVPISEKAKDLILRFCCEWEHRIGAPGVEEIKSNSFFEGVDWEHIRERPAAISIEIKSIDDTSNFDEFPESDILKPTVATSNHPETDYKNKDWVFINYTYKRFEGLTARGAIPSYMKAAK
Chain of Insulin receptor (Homo sapiens) (P06213 28-758 limits assumed): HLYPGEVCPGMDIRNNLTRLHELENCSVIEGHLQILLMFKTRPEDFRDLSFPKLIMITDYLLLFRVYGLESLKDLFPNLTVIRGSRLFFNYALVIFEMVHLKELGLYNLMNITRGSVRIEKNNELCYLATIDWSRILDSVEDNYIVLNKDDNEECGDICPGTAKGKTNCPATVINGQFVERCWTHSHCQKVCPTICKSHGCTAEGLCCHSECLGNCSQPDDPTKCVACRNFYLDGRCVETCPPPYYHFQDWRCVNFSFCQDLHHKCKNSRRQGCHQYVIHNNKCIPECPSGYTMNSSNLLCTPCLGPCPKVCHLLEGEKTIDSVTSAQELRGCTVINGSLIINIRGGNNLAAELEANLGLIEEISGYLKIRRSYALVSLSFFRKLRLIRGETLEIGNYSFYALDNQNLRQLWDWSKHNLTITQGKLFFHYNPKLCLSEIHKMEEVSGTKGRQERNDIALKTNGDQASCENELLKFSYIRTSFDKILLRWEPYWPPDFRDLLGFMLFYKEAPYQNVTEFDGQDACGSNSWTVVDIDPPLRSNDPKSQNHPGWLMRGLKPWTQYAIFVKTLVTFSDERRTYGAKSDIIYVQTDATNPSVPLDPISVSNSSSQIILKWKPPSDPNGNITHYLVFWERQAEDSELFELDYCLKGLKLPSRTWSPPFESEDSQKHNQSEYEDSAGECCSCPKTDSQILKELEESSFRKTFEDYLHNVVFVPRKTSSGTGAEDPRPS
Chain of Insulin receptor (Homo sapiens) (P06213 763-1382 limits assumed): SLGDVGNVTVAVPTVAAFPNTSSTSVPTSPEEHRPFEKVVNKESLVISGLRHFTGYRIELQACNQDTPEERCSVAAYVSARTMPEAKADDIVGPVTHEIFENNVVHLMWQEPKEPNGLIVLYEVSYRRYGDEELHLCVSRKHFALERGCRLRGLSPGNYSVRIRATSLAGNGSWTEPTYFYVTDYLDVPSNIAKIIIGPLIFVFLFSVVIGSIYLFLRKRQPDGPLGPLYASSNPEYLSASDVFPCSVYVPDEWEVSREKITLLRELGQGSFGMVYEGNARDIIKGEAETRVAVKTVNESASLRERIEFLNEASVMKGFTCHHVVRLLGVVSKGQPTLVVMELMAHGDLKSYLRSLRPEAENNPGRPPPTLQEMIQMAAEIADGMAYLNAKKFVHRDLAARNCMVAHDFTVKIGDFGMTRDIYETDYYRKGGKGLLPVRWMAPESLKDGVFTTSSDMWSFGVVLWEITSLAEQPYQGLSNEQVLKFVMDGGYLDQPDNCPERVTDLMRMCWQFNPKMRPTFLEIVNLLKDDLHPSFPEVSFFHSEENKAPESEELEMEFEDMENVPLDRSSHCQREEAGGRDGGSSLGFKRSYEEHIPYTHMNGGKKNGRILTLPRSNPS
Chain of Casein kinase I isoform alpha (Homo sapiens) (P48729 2-337 limits assumed): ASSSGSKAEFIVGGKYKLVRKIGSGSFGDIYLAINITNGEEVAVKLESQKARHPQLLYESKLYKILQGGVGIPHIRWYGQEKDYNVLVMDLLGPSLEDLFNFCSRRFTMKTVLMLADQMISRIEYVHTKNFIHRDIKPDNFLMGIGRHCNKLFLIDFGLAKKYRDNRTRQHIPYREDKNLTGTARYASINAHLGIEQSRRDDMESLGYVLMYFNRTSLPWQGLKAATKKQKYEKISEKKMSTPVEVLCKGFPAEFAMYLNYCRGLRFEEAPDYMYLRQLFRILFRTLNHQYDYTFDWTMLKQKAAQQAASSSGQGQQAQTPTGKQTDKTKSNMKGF
Chain of Serine/threonine-protein kinase 25 (Homo sapiens) (O00506 whole entry, looked up): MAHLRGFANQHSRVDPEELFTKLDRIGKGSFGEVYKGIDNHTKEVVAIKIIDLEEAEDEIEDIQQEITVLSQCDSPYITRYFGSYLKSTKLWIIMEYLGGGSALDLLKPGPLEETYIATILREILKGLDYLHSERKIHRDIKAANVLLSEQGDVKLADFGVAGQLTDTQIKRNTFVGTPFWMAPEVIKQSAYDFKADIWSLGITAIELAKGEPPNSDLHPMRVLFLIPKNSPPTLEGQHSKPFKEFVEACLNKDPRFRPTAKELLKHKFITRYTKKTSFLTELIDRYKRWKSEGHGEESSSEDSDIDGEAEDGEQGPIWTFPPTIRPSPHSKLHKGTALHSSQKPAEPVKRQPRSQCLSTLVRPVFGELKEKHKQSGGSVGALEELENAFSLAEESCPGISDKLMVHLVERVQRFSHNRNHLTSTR

Regarding `CCc1ccccc1C(=O)Nc1n[nH]c2c(C)c(F)c(C3C(C#N)=C(C)N(C)C(C)=C3C#N)cc12` [BAY-3827], the residual activity is 100% in experiment [1]; 85% in [2]; 100% in experiment [3]; 100% in [4]; 100% in experiment [5]; 100% in experiment [6]. Besides, the residual activity in experiment [7] is 82%; in experiment [8] it was 75%; in experiment [9] it was 100%; in [10], 100%; in experiment [11], 100%; in experiment [12] it was 80%. Besides, the residual activity in [13] is 88%; in experiment [14], 100%; in [15] it was 33%; in [16], 62%; in experiment [17] it was 96%; in experiment [18], 54%. Further, the residual activity in experiment [19] and in [20] was 100% throughout. Moreover, the inhibition – broadly, the drop in the measured response relative to a control, in per cent – in experiment [21] was -7.98%.

Regarding `CC1=C(C#N)C(c2ccc3c(c2)c(NC(=O)c2ccccc2C)nn3C)C(C#N)=C(C)N1` [BAY-974], the residual activity in experiment [1] is 100%; in experiment [2], 84%; in experiment [3], 77%; in experiment [4], 96%; in [5], 86%; in experiment [6] it was 100%. Moreover, the residual activity is 98% in experiment [7]; 79% in [8]; 87% in [9]; 99% in experiment [10]; 87% in experiment [11]; 100% in experiment [12]. For the same compound, the residual activity in experiment [13] was 96%; in [14], 100%; in experiment [15], 95%; in experiment [16] it was 52%; in experiment [17] it was 70%; in experiment [18], 70%. The residual activity in experiment [19] was 88%; in experiment [20] it was 100%. The inhibition in [21] was -0.8%.
